Assay results from US9885088B2, “Rapid phenotypic diagnosis of pathogens and drug resistance using transcriptional expression signatures” (priority 2010, dated 2018).
Converted amounts (≈) assume the structure as drawn. Read-outs that look alike come from different tables or passages of the source.

Legend:
M. tuberculosis [1] = conditions: M. tuberculosis after drug exposure, cited from earlier work; for Magnitude of induction/repression in prior microarray-based assays, RV1570 bioD: gene RV1570 (bioD); for Magnitude of induction/repression in prior microarray-based assays, RV1570 bioD / Magnitude of induction/repression in prior microarray-based assays, RV1606 hisI / Magnitude of induction/repression in prior microarray-based assays, Rv0984 moaB2 / Magnitude of induction/repression in prior microarray-based assays, Rv2296 haloalkane / Magnitude of induction/repression in prior microarray-based assays, Rv2364c era: purpose RIF; for Magnitude of induction/repression in prior microarray-based assays, RV1606 hisI: gene RV1606 (hisI); for Magnitude of induction/repression in prior microarray-based assays, RV3675: gene RV3675 (Rv3675); for Magnitude of induction/repression in prior microarray-based assays, RV3675 / Magnitude of induction/repression in prior microarray-based assays, Rv2245 kasA / Magnitude of induction/repression in prior microarray-based assays, Rv2247 accD6 / Magnitude of induction/repression in prior microarray-based assays, Rv2846c efpA / Magnitude of induction/repression in prior microarray-based assays, Rv3801c fadD32: purpose INH; for Magnitude of induction/repression in prior microarray-based assays, Rv0055 rpsR: gene Rv0055 (rpsR); for Magnitude of induction/repression in prior microarray-based assays, Rv0055 rpsR / Magnitude of induction/repression in prior microarray-based assays, Rv1317c alkA / Magnitude of induction/repression in prior microarray-based assays, Rv2737c recA / Magnitude of induction/repression in prior microarray-based assays, Rv2790c ltp1 / Magnitude of induction/repression in prior microarray-based assays, Rv3296 lhr: purpose FQ; for Magnitude of induction/repression in prior microarray-based assays, Rv0667 rpoB: gene Rv0667 (rpoB); for Magnitude of induction/repression in prior microarray-based assays, Rv0667 rpoB / Magnitude of induction/repression in prior microarray-based assays, Rv1980c mpt64 / Magnitude of induction/repression in prior microarray-based assays, Rv2703 sigA / Magnitude of induction/repression in prior microarray-based assays, Rv3583c: purpose control; for Magnitude of induction/repression in prior microarray-based assays, Rv0813c CHP: gene Rv0813c (CHP); for Magnitude of induction/repression in prior microarray-based assays, Rv0813c CHP / Magnitude of induction/repression in prior microarray-based assays, Rv1511 gmdA / Magnitude of induction/repression in prior microarray-based assays, Rv1608c bcpB / Magnitude of induction/repression in prior microarray-based assays, Rv1832 gcvB / Magnitude of induction/repression in prior microarray-based assays, Rv3417c groEL: purpose SM; for Magnitude of induction/repression in prior microarray-based assays, Rv0984 moaB2: gene Rv0984 (moaB2); for Magnitude of induction/repression in prior microarray-based assays, Rv1317c alkA: gene Rv1317c (alkA); for Magnitude of induction/repression in prior microarray-based assays, Rv1511 gmdA: gene Rv1511 (gmdA); for Magnitude of induction/repression in prior microarray-based assays, Rv1608c bcpB: gene Rv1608c (bcpB); for Magnitude of induction/repression in prior microarray-based assays, Rv1832 gcvB: gene Rv1832 (gcvB); for Magnitude of induction/repression in prior microarray-based assays, Rv1980c mpt64: gene Rv1980c (mpt64); for Magnitude of induction/repression in prior microarray-based assays, Rv2245 kasA: gene Rv2245 (kasA); for Magnitude of induction/repression in prior microarray-based assays, Rv2247 accD6: gene Rv2247 (accD6); for Magnitude of induction/repression in prior microarray-based assays, Rv2296 haloalkane: gene Rv2296 (haloalkane); for Magnitude of induction/repression in prior microarray-based assays, Rv2364c era: gene Rv2364c (era); for Magnitude of induction/repression in prior microarray-based assays, Rv2703 sigA: gene Rv2703 (sigA); for Magnitude of induction/repression in prior microarray-based assays, Rv2737c recA: gene Rv2737c (recA); for Magnitude of induction/repression in prior microarray-based assays, Rv2790c ltp1: gene Rv2790c (ltp1); for Magnitude of induction/repression in prior microarray-based assays, Rv2846c efpA: gene Rv2846c (efpA); for Magnitude of induction/repression in prior microarray-based assays, Rv3296 lhr: gene Rv3296 (lhr); for Magnitude of induction/repression in prior microarray-based assays, Rv3417c groEL: gene Rv3417c (groEL); for Magnitude of induction/repression in prior microarray-based assays, Rv3583c: gene Rv3583c; for Magnitude of induction/repression in prior microarray-based assays, Rv3801c fadD32: gene Rv3801c (fadD32)
M. tuberculosis [2] = type: cell-based
M. tuberculosis [3] = assay: microbe, parasite or virus in culture; type: cell-based
E. coli [4] = assay: microbe, parasite or virus in culture; type: cell-based
E. coli [5] = type: cell-based; conditions: wild-type E. coli K-12, 10-30 minute exposure
[6] = Mycobacterium tuberculosis, H37RV
[7] = E. coli clinical isolate CIEC9955

CO[C@H]1/C=C/O[C@@]2(C)Oc3c(C)c(O)c4c(O)c(c(/C=N/N5CCN(C)CC5)c(O)c4c3C2=O)NC(=O)/C(C)=C\C=C\[C@H](C)[C@H](O)[C@@H](C)[C@@H](O)[C@@H](C)[C@H](OC(C)=O)[C@@H]1C [RIF]
Magnitude of induction/repression in prior microarray-based assays, RV1570 bioD (M. tuberculosis [1]): 1.2 | Magnitude of induction/repression in prior microarray-based assays, RV1606 hisI (M. tuberculosis [1]): 1.5 | Magnitude of induction/repression in prior microarray-based assays, RV3675 (M. tuberculosis [1]): 0.0 | Magnitude of induction/repression in prior microarray-based assays, Rv0055 rpsR (M. tuberculosis [1]): −0.9 | Magnitude of induction/repression in prior microarray-based assays, Rv0667 rpoB (M. tuberculosis [1]): 0.1 | Magnitude of induction/repression in prior microarray-based assays, Rv0813c CHP (M. tuberculosis [1]): 0.3 | Magnitude of induction/repression in prior microarray-based assays, Rv0984 moaB2 (M. tuberculosis [1]): 1.7 | Magnitude of induction/repression in prior microarray-based assays, Rv1317c alkA (M. tuberculosis [1]): 0.5 | Magnitude of induction/repression in prior microarray-based assays, Rv1511 gmdA (M. tuberculosis [1]): −0.3 | Magnitude of induction/repression in prior microarray-based assays, Rv1608c bcpB (M. tuberculosis [1]): 0.3 | Magnitude of induction/repression in prior microarray-based assays, Rv1832 gcvB (M. tuberculosis [1]): −0.4 | Magnitude of induction/repression in prior microarray-based assays, Rv1980c mpt64 (M. tuberculosis [1]): −1.2 | Magnitude of induction/repression in prior microarray-based assays, Rv2245 kasA (M. tuberculosis [1]): −1.0 | Magnitude of induction/repression in prior microarray-based assays, Rv2247 accD6 (M. tuberculosis [1]): −0.8 | Magnitude of induction/repression in prior microarray-based assays, Rv2296 haloalkane (M. tuberculosis [1]): 1.2 | Magnitude of induction/repression in prior microarray-based assays, Rv2364c era (M. tuberculosis [1]): 1.4 | Magnitude of induction/repression in prior microarray-based assays, Rv2703 sigA (M. tuberculosis [1]): −1.4 | Magnitude of induction/repression in prior microarray-based assays, Rv2737c recA (M. tuberculosis [1]): −0.6 | Magnitude of induction/repression in prior microarray-based assays, Rv2790c ltp1 (M. tuberculosis [1]): −0.7 | Magnitude of induction/repression in prior microarray-based assays, Rv2846c efpA (M. tuberculosis [1]): −0.9 | Magnitude of induction/repression in prior microarray-based assays, Rv3296 lhr (M. tuberculosis [1]): 0.2 | Magnitude of induction/repression in prior microarray-based assays, Rv3417c groEL (M. tuberculosis [1]): −0.9 | Magnitude of induction/repression in prior microarray-based assays, Rv3583c (M. tuberculosis [1]): −1.8 | Magnitude of induction/repression in prior microarray-based assays, Rv3801c fadD32 (M. tuberculosis [1]): −0.6

NNC(=O)c1ccncc1 [Isoniazid]
genes with drug-dependent induction (M. tuberculosis [2]): kasA, fadD32, accD6, efpA, and Rv3675.1 | MIC (M. tuberculosis [3]; Mycobacterium tuberculosis, BAA812): 0.4 mg/L (≈ 2.92 µM) | MIC (M. tuberculosis [3]; [6]): 0.05 mg/L (≈ 0.365 µM)

CO[C@H]1/C=C/O[C@@]2(C)Oc3c(C)c(O)c4c(O)c(c(/C=N/N5CCN(C)CC5)c(O)c4c3C2=O)NC(=O)/C(C)=C\C=C\[C@H](C)[C@H](O)[C@@H](C)[C@@H](O)[C@@H](C)[C@H](OC(C)=O)[C@@H]1C [Rifampin]
genes with drug-dependent induction (M. tuberculosis [2]): bioD, hisI, era, and Rv2296

[H]/N=C(/N)N[C@H]1[C@H](O)[C@@H](O)[C@H](O[C@@H]2O[C@@H](C)[C@](O)(C=O)[C@H]2O[C@@H]2O[C@@H](CO)[C@H](O)[C@@H](O)[C@@H]2NC)[C@@H](N/C(N)=N\[H])[C@@H]1O [Streptomycin]
Magnitude of induction/repression in prior microarray-based assays, RV1570 bioD (M. tuberculosis [1]): −0.3 | Magnitude of induction/repression in prior microarray-based assays, RV1606 hisI (M. tuberculosis [1]): −0.4 | Magnitude of induction/repression in prior microarray-based assays, RV3675 (M. tuberculosis [1]): 0.0 | Magnitude of induction/repression in prior microarray-based assays, Rv0055 rpsR (M. tuberculosis [1]): 1.7 | Magnitude of induction/repression in prior microarray-based assays, Rv0667 rpoB (M. tuberculosis [1]): 1.4 | Magnitude of induction/repression in prior microarray-based assays, Rv0813c CHP (M. tuberculosis [1]): 3.8 | Magnitude of induction/repression in prior microarray-based assays, Rv0984 moaB2 (M. tuberculosis [1]): −1.1 | Magnitude of induction/repression in prior microarray-based assays, Rv1317c alkA (M. tuberculosis [1]): 0.4 | Magnitude of induction/repression in prior microarray-based assays, Rv1511 gmdA (M. tuberculosis [1]): 1.6 | Magnitude of induction/repression in prior microarray-based assays, Rv1608c bcpB (M. tuberculosis [1]): 2.2 | Magnitude of induction/repression in prior microarray-based assays, Rv1832 gcvB (M. tuberculosis [1]): 1.3 | Magnitude of induction/repression in prior microarray-based assays, Rv1980c mpt64 (M. tuberculosis [1]): 0.4 | Magnitude of induction/repression in prior microarray-based assays, Rv2245 kasA (M. tuberculosis [1]): −1.9 | Magnitude of induction/repression in prior microarray-based assays, Rv2247 accD6 (M. tuberculosis [1]): −0.8 | Magnitude of induction/repression in prior microarray-based assays, Rv2296 haloalkane (M. tuberculosis [1]): 0.1 | Magnitude of induction/repression in prior microarray-based assays, Rv2364c era (M. tuberculosis [1]): −0.6 | Magnitude of induction/repression in prior microarray-based assays, Rv2703 sigA (M. tuberculosis [1]): 0.4 | Magnitude of induction/repression in prior microarray-based assays, Rv2737c recA (M. tuberculosis [1]): −0.1 | Magnitude of induction/repression in prior microarray-based assays, Rv2790c ltp1 (M. tuberculosis [1]): −1.1 | Magnitude of induction/repression in prior microarray-based assays, Rv2846c efpA (M. tuberculosis [1]): −0.7 | Magnitude of induction/repression in prior microarray-based assays, Rv3296 lhr (M. tuberculosis [1]): 0.1 | Magnitude of induction/repression in prior microarray-based assays, Rv3417c groEL (M. tuberculosis [1]): 1.6 | Magnitude of induction/repression in prior microarray-based assays, Rv3583c (M. tuberculosis [1]): 1.0 | Magnitude of induction/repression in prior microarray-based assays, Rv3801c fadD32 (M. tuberculosis [1]): 0.8 | genes with drug-dependent induction (M. tuberculosis [2]): CHP, bcpB, gcvB, and groEL | MIC (M. tuberculosis [3]; [6]): 1 mg/L (≈ 1.72 µM)

Gentamicin
Sensitive (S) or Resistant (R) (E. coli [4]): S and R | MIC (E. coli [4]; E. coli clinical isolate CIEC1676): 8 mg/L | MIC (E. coli [4]; E. coli clinical isolate CIEC1801): 8 mg/L | MIC (E. coli [4]; E. coli clinical isolate CIEC2219): 125 mg/L | MIC (E. coli [4]; E. coli clinical isolate CIEC4940): >250 mg/L | MIC (E. coli [4]; E. coli clinical isolate CIEC9181): >250 mg/L | MIC (E. coli [4]; [7]): 16 mg/L | MIC (E. coli [4]; E. coli strain K12): 8 mg/L | changes in transcript levels (drug-susceptible expression signature) (E. coli [5]): expected changes in transcript levels

O=C(O)c1cn(C2CC2)c2cc(N3CCNCC3)c(F)cc2c1=O [Ciprofloxacin]
MIC (M. tuberculosis [3]): 16 mg/L (≈ 48.3 µM)

CC1(C)S[C@@H]2[C@H](NC(=O)[C@H](N)c3ccccc3)C(=O)N2[C@H]1C(=O)O [Ampicillin]
Sensitive (S) or Resistant (R) (E. coli [4]; [7]): R | Sensitive (S) or Resistant (R) (E. coli [4]; E. coli strain K12): S | MIC (E. coli [4]; Escherichia coli, E. coli clinical isolate CIEC0838, read-out: MIC): > 250 mg/L | MIC (E. coli [4]; Escherichia coli, E. coli clinical isolate CIEC2219, read-out: MIC): > 250 mg/L | MIC (E. coli [4]; Escherichia coli, E. coli clinical isolate CIEC9181, read-out: MIC): > 250 mg/L | MIC (E. coli [4]; Escherichia coli, E. coli clinical isolate CIEC9955, read-out: MIC): > 250 mg/L | MIC (E. coli [4]; Escherichia coli, E. coli strain DH5α, read-out: MIC): 8 mg/L (≈ 22.9 µM) | MIC (E. coli [4]; Escherichia coli, E. coli strain J53, read-out: MIC): 4 mg/L (≈ 11.4 µM) | MIC (E. coli [4]; Escherichia coli, E. coli strain K12, read-out: MIC): 4 mg/L (≈ 11.4 µM) | changes in transcript levels (drug-susceptible expression signature) (E. coli [5]): expected changes in transcript levels
